Test results taken from ChEMBL document CHEMBL2169839 (J Med Chem, 2012).
Changes are numbered by the printed parent chain.

Tests used:
[1] = target: T1, Aldo-keto reductase family 1 member C1 (Homo sapiens, UniProt Q04828)
T1 sequence (Q04828 whole entry): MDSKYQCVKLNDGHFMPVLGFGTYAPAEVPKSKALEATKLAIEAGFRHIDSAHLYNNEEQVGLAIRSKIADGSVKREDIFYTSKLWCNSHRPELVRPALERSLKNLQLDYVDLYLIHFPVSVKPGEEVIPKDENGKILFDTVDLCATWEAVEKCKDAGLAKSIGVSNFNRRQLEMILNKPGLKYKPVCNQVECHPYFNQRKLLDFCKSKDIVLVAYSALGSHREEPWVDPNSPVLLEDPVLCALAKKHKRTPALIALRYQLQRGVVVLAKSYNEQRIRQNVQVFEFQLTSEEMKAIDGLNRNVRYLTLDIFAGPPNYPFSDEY

[2] = target: T2, Aldo-keto reductase family 1 member C2 (Homo sapiens, UniProt P52895)
T2 sequence (P52895 whole entry): T1 sequence (Q04828 whole entry) with T38V, R47H, L54V, C87S, V151M, R170H, Q172L

[3] = target: T3, Aldo-keto reductase family 1 member C4 (Homo sapiens, UniProt P17516)
T3 sequence (P17516 whole entry): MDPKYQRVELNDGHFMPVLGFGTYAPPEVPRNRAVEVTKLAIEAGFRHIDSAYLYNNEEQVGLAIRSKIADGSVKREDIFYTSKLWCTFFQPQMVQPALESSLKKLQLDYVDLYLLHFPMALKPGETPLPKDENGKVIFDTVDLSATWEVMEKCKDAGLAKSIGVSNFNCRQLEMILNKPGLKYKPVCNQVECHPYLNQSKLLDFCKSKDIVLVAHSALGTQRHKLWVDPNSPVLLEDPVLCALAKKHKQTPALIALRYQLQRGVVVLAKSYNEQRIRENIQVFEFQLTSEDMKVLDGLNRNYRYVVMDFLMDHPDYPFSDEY

[4] = target: T4, Aldo-keto reductase family 1 member C3 (Homo sapiens, UniProt P42330); assay: biochemical
T4 sequence (P42330 whole entry): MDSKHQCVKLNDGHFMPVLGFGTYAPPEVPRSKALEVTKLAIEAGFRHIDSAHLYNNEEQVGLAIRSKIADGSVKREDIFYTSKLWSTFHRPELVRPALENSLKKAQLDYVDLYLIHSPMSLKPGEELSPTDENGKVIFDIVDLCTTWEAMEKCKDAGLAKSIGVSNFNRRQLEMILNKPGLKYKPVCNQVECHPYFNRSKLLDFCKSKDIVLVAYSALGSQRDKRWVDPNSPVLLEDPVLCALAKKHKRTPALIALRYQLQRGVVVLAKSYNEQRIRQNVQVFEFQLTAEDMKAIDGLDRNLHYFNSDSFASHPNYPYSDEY

[5] = target: T4, Aldo-keto reductase family 1 member C3; assay: Inhibition of AKR1C3 overexpressed in human HCT116 cells assessed as inhibition of PR-104A conversion to hydroxylamine after 2 hrs by LC-MS/MS analysis
[6] = target: T3, Aldo-keto reductase family 1 member C4; assay: Inhibition of human recombinant AKR1C4 expressed in Escherichia coli BL21(DE3) using phenanthrenequinone as substrate by spectrophotometric analysis
[7] = target: T4, Aldo-keto reductase family 1 member C3
[8] = target: T1, Aldo-keto reductase family 1 member C1; assay: Inhibition of human recombinant AKR1C1 expressed in Escherichia coli BL21(DE3) using phenanthrenequinone as substrate by spectrophotometric analysis

IC50 [1] [nM]	IC50 [2] [nM]	IC50 [3] [nM]	IC50 [4] [nM]	IC50 [5] [nM]	Ki [6] [nM]	Ki [7] [nM]	Ki [8] [nM]	SMILES
20300	> 30000	> 30000	13	27	–	–	–	O=C(O)c1cccc(S(=O)(=O)N2CCc3ccccc3C2)c1
> 30000	> 30000	> 30000	20	> 1000	–	–	–	O=C(O)c1cccc(S(=O)(=O)N2CCc3ccc(Cl)cc3C2)c1
740	12100	> 30000	19	28	–	–	–	O=C(O)c1cccc(S(=O)(=O)N2CCc3cccc(Cl)c3C2)c1
> 30000	> 30000	> 30000	53	193	–	–	–	Nc1cccc2c1CCN(S(=O)(=O)c1cccc(C(=O)O)c1)C2
24600	> 30000	> 30000	8.9	29	–	–	–	O=C(O)c1cccc(S(=O)(=O)N2CCc3c(cccc3[N+](=O)[O-])C2)c1
> 30000	9320	> 30000	11	16	–	–	–	O=C(O)c1cccc(S(=O)(=O)N2CCc3c(Cl)cccc3C2)c1
> 30000	> 30000	> 30000	11	14	–	–	–	O=C(O)c1cccc(S(=O)(=O)N2CCc3c(Br)cccc3C2)c1
> 30000	> 30000	> 30000	14	20	–	–	–	O=C(O)c1cccc(S(=O)(=O)N2CCc3c(I)cccc3C2)c1
25600	> 30000	> 30000	16	453	–	–	–	O=C(O)c1cccc(S(=O)(=O)N2CCc3c(O)cccc3C2)c1
> 30000	> 30000	> 30000	16	39	–	–	–	COc1cccc2c1CCN(S(=O)(=O)c1cccc(C(=O)O)c1)C2
> 30000	> 30000	> 30000	17	52	–	–	–	Cc1ccc2c(c1)CCN(S(=O)(=O)c1cccc(C(=O)O)c1)C2
7480	> 30000	> 30000	8.7	39	–	–	–	O=C(O)c1cccc(S(=O)(=O)N2CCc3cc(Cl)ccc3C2)c1
> 30000	> 30000	> 30000	6.1	12	–	–	–	O=C(O)c1cccc(S(=O)(=O)N2CCc3cc(Br)ccc3C2)c1
> 30000	> 30000	> 30000	27	> 1000	–	–	–	O=C(O)c1cccc(S(=O)(=O)N2CCc3cc(O)ccc3C2)c1
> 30000	> 30000	> 30000	13	29	–	–	–	Cc1ccc2c(c1)CN(S(=O)(=O)c1cccc(C(=O)O)c1)CC2

Continued, molecule first:

SMILES	IC50 [1] [nM]	IC50 [2] [nM]	IC50 [3] [nM]	IC50 [4] [nM]	IC50 [5] [nM]	Ki [6] [nM]	Ki [7] [nM]	Ki [8] [nM]
O=C(O)c1cccc(S(=O)(=O)N2Cc3ccccc3C2)c1	3890	> 30000	> 30000	47	884	–	–	–
O=C(O)c1cccc(S(=O)(=O)NCCc2ccccc2)c1	> 30000	> 30000	> 30000	220	> 1000	–	–	–
O=C(O)[C@H]1CCCN(S(=O)(=O)c2ccc3ccccc3c2)C1	> 30000	> 3000	> 3000	400	> 1000	–	–	–
O=C(O)c1cccc(S(=O)(=O)N2CCc3ccc([N+](=O)[O-])cc3C2)c1	> 30000	> 30000	> 30000	17	72	–	–	–
O=C(O)c1cccc(S(=O)(=O)N2CCc3ccc(F)cc3C2)c1	> 30000	> 30000	> 30000	21	24	–	–	–
O=C(O)c1cccc(S(=O)(=O)N2CCc3ccc(Br)cc3C2)c1	> 30000	> 30000	> 30000	12	20	–	–	–
O=C(O)c1cccc(S(=O)(=O)N2CCc3ccc(I)cc3C2)c1	> 30000	> 30000	> 30000	14	45	–	–	–
N#Cc1ccc2c(c1)CN(S(=O)(=O)c1cccc(C(=O)O)c1)CC2	> 30000	> 30000	> 30000	34	266	–	–	–
COc1cc2c(cc1OC)CN(S(=O)(=O)c1cccc(C(=O)O)c1)CC2	> 30000	> 30000	> 30000	160	> 1000	–	–	–
O=C(O)c1cccc(S(=O)(=O)N2CCCc3ccccc32)c1	> 30000	> 30000	> 30000	200	> 1000	–	–	–
O=C(O)c1cn(S(=O)(=O)c2ccc(Br)cc2)c2ccccc12	830	> 30000	> 30000	68	407	–	–	–
CC1c2ccccc2CCN1S(=O)(=O)c1cccc(C(=O)O)c1 (stereo not drawn)	> 30000	> 30000	> 30000	27	24	–	–	–
CC1Cc2ccccc2CN1S(=O)(=O)c1cccc(C(=O)O)c1 (stereo not drawn)	> 30000	> 30000	> 30000	8.6	176	–	–	–
O=C(O)c1cccc(S(=O)(=O)N2CCc3cc([N+](=O)[O-])ccc3C2)c1	> 30000	> 30000	> 30000	22	> 1000	–	–	–
COc1ccc2c(c1)CCN(S(=O)(=O)c1cccc(C(=O)O)c1)C2	> 30000	> 30000	> 30000	38	390	–	–	–
O=C(O)c1cccc(S(=O)(=O)N2CC=CCC2)c1	> 30000	> 30000	> 30000	390	> 1000	–	–	–
O=C(O)c1cccc(S(=O)(=O)N2CCc3sccc3C2)c1	> 30000	> 30000	> 30000	25	34	–	–	–
O=C(O)c1cccc(S(=O)(=O)N2CCc3ccccc32)c1	6610	> 30000	> 30000	210	> 1000	–	–	–
CC/C=C\C[C@H]1C(=O)CC[C@@H]1CC(=O)O [JASMONIC ACID]	–	–	–	–	–	37000	162000	106000
